Measured values from the NIST ThermoML archive (doi:10.1021/je400004j).
Numbers after ± are expanded uncertainties.

Assay: xn = mol fraction of the nth substance listed
Settings: 298.15 K, Ring tensiometer, x1 = 0.6
Work on `CCOP(=O)([O-])OCC.CCn1cc[n+](C)c1` [1-ethyl-3-methylimidazolium diethyl phosphate] + CCO yielded a surface tension liquid-gas of 30.1 ± 0.4 mN/m. In the case of `CCOP(=O)([O-])OCC.CCn1cc[n+](C)c1` [1-ethyl-3-methylimidazolium diethyl phosphate] + CO, the surface tension liquid-gas is reported as 34.7 ± 0.5 mN/m. Molecule `CCOP(=O)([O-])OCC.CCn1cc[n+](C)c1` [1-ethyl-3-methylimidazolium diethyl phosphate] + O has a surface tension liquid-gas of 37.4 ± 0.5 mN/m. In the case of `CCn1cc[n+](C)c1.COP(=O)([O-])OC` [1-ethyl-3-methylimidazolium dimethylphosphate] + CCO, the surface tension liquid-gas is reported as 31.7 ± 0.5 mN/m. Work on `CCn1cc[n+](C)c1.COP(=O)([O-])OC` [1-ethyl-3-methylimidazolium dimethylphosphate] + CO yielded a surface tension liquid-gas of 37 ± 0.5 mN/m. For `CCn1cc[n+](C)c1.COP(=O)([O-])OC` [1-ethyl-3-methylimidazolium dimethylphosphate] + O, the surface tension liquid-gas was 44.2 ± 0.6 mN/m.

Same assay, conditions: 298.15 K, Ring tensiometer, x1 = 0.7
`CCCCn1cc[n+](C)c1.COP(=O)([O-])OC` [1-butyl-3-methyl-1H-imidazolium dimethylphosphate] + O gave a surface tension liquid-gas of 38.2 ± 0.5 mN/m. In the case of `CCCCOP(=O)([O-])OCCCC.CCCCn1cc[n+](C)c1` [1-butyl-3-methylimidazolium dibutyl phosphate] + CCO, the surface tension liquid-gas is reported as 27.8 ± 0.4 mN/m. Molecule `CCCCOP(=O)([O-])OCCCC.CCCCn1cc[n+](C)c1` [1-butyl-3-methylimidazolium dibutyl phosphate] + CO has a surface tension liquid-gas of 29.1 ± 0.4 mN/m. With `CCCCOP(=O)([O-])OCCCC.CCCCn1cc[n+](C)c1` [1-butyl-3-methylimidazolium dibutyl phosphate] + O the surface tension liquid-gas was 29.3 ± 0.4 mN/m. `CCOP(=O)([O-])OCC.CCn1cc[n+](C)c1` [1-ethyl-3-methylimidazolium diethyl phosphate] + CCO gave a surface tension liquid-gas of 31.6 ± 0.5 mN/m. Work on `CCOP(=O)([O-])OCC.CCn1cc[n+](C)c1` [1-ethyl-3-methylimidazolium diethyl phosphate] + CO yielded a surface tension liquid-gas of 35.3 ± 0.5 mN/m. Work on `CCOP(=O)([O-])OCC.CCn1cc[n+](C)c1` [1-ethyl-3-methylimidazolium diethyl phosphate] + O yielded a surface tension liquid-gas of 37.3 ± 0.5 mN/m. `CCn1cc[n+](C)c1.COP(=O)([O-])OC` [1-ethyl-3-methylimidazolium dimethylphosphate] + CCO gave a surface tension liquid-gas of 34 ± 0.5 mN/m. For `CCn1cc[n+](C)c1.COP(=O)([O-])OC` [1-ethyl-3-methylimidazolium dimethylphosphate] + CO, the surface tension liquid-gas was 38.9 ± 0.6 mN/m. `CCn1cc[n+](C)c1.COP(=O)([O-])OC` [1-ethyl-3-methylimidazolium dimethylphosphate] + O showed a surface tension liquid-gas of 44.1 ± 0.61 mN/m.

Same assay, conditions: 298.15 K, Ring tensiometer, x1 = 0.8
`CCCCn1cc[n+](C)c1.COP(=O)([O-])OC` [1-butyl-3-methyl-1H-imidazolium dimethylphosphate] + O showed a surface tension liquid-gas of 38 ± 0.5 mN/m. For `CCCCOP(=O)([O-])OCCCC.CCCCn1cc[n+](C)c1` [1-butyl-3-methylimidazolium dibutyl phosphate] + CCO, the surface tension liquid-gas was 28.3 ± 0.4 mN/m. `CCCCOP(=O)([O-])OCCCC.CCCCn1cc[n+](C)c1` [1-butyl-3-methylimidazolium dibutyl phosphate] + CO showed a surface tension liquid-gas of 29.4 ± 0.4 mN/m. For `CCCCOP(=O)([O-])OCCCC.CCCCn1cc[n+](C)c1` [1-butyl-3-methylimidazolium dibutyl phosphate] + O, the surface tension liquid-gas was 29.4 ± 0.4 mN/m. `CCOP(=O)([O-])OCC.CCn1cc[n+](C)c1` [1-ethyl-3-methylimidazolium diethyl phosphate] + CCO gave a surface tension liquid-gas of 33.2 ± 0.5 mN/m. In the case of `CCOP(=O)([O-])OCC.CCn1cc[n+](C)c1` [1-ethyl-3-methylimidazolium diethyl phosphate] + CO, the surface tension liquid-gas is reported as 37.2 ± 0.5 mN/m. With `CCOP(=O)([O-])OCC.CCn1cc[n+](C)c1` [1-ethyl-3-methylimidazolium diethyl phosphate] + O the surface tension liquid-gas was 37.2 ± 0.5 mN/m. Molecule `CCn1cc[n+](C)c1.COP(=O)([O-])OC` [1-ethyl-3-methylimidazolium dimethylphosphate] + CCO has a surface tension liquid-gas of 36.5 ± 0.5 mN/m. For `CCn1cc[n+](C)c1.COP(=O)([O-])OC` [1-ethyl-3-methylimidazolium dimethylphosphate] + CO, the surface tension liquid-gas was 40.6 ± 0.6 mN/m. `CCn1cc[n+](C)c1.COP(=O)([O-])OC` [1-ethyl-3-methylimidazolium dimethylphosphate] + O gave a surface tension liquid-gas of 44.5 ± 0.62 mN/m.

Same assay, conditions: 298.15 K, Ring tensiometer, x1 = 0.9
Molecule `CCCCn1cc[n+](C)c1.COP(=O)([O-])OC` [1-butyl-3-methyl-1H-imidazolium dimethylphosphate] + O has a surface tension liquid-gas of 38.1 ± 0.5 mN/m. For `CCCCOP(=O)([O-])OCCCC.CCCCn1cc[n+](C)c1` [1-butyl-3-methylimidazolium dibutyl phosphate] + CCO, the surface tension liquid-gas was 28.8 ± 0.4 mN/m. With `CCCCOP(=O)([O-])OCCCC.CCCCn1cc[n+](C)c1` [1-butyl-3-methylimidazolium dibutyl phosphate] + CO the surface tension liquid-gas was 29.5 ± 0.4 mN/m. Molecule `CCCCOP(=O)([O-])OCCCC.CCCCn1cc[n+](C)c1` [1-butyl-3-methylimidazolium dibutyl phosphate] + O has a surface tension liquid-gas of 29.5 ± 0.4 mN/m. With `CCOP(=O)([O-])OCC.CCn1cc[n+](C)c1` [1-ethyl-3-methylimidazolium diethyl phosphate] + CCO the surface tension liquid-gas was 34.8 ± 0.5 mN/m. Work on `CCOP(=O)([O-])OCC.CCn1cc[n+](C)c1` [1-ethyl-3-methylimidazolium diethyl phosphate] + CO yielded a surface tension liquid-gas of 37.3 ± 0.5 mN/m. Work on `CCOP(=O)([O-])OCC.CCn1cc[n+](C)c1` [1-ethyl-3-methylimidazolium diethyl phosphate] + O yielded a surface tension liquid-gas of 37.3 ± 0.5 mN/m. For `CCn1cc[n+](C)c1.COP(=O)([O-])OC` [1-ethyl-3-methylimidazolium dimethylphosphate] + CCO, the surface tension liquid-gas was 39.3 ± 0.6 mN/m. For `CCn1cc[n+](C)c1.COP(=O)([O-])OC` [1-ethyl-3-methylimidazolium dimethylphosphate] + CO, the surface tension liquid-gas was 42.4 ± 0.6 mN/m. In the case of `CCn1cc[n+](C)c1.COP(=O)([O-])OC` [1-ethyl-3-methylimidazolium dimethylphosphate] + O, the surface tension liquid-gas is reported as 44.4 ± 0.62 mN/m.

Same assay, conditions: 298.15 K, Ring tensiometer, x1 = 1
`CCCCn1cc[n+](C)c1.COP(=O)([O-])OC` [1-butyl-3-methyl-1H-imidazolium dimethylphosphate] + O showed a surface tension liquid-gas of 38 ± 0.5 mN/m. In the case of `CCCCOP(=O)([O-])OCCCC.CCCCn1cc[n+](C)c1` [1-butyl-3-methylimidazolium dibutyl phosphate] + CCO, the surface tension liquid-gas is reported as 29.4 ± 0.4 mN/m. For `CCCCOP(=O)([O-])OCCCC.CCCCn1cc[n+](C)c1` [1-butyl-3-methylimidazolium dibutyl phosphate] + CO, the surface tension liquid-gas was 29.4 ± 0.4 mN/m. `CCCCOP(=O)([O-])OCCCC.CCCCn1cc[n+](C)c1` [1-butyl-3-methylimidazolium dibutyl phosphate] + O gave a surface tension liquid-gas of 29.4 ± 0.4 mN/m. Molecule `CCOP(=O)([O-])OCC.CCn1cc[n+](C)c1` [1-ethyl-3-methylimidazolium diethyl phosphate] + CCO has a surface tension liquid-gas of 37.1 ± 0.5 mN/m. For `CCOP(=O)([O-])OCC.CCn1cc[n+](C)c1` [1-ethyl-3-methylimidazolium diethyl phosphate] + CO, the surface tension liquid-gas was 37.1 ± 0.5 mN/m. `CCOP(=O)([O-])OCC.CCn1cc[n+](C)c1` [1-ethyl-3-methylimidazolium diethyl phosphate] + O showed a surface tension liquid-gas of 37.1 ± 0.5 mN/m. For `CCn1cc[n+](C)c1.COP(=O)([O-])OC` [1-ethyl-3-methylimidazolium dimethylphosphate] + CCO, the surface tension liquid-gas was 44.3 ± 0.6 mN/m. In the case of `CCn1cc[n+](C)c1.COP(=O)([O-])OC` [1-ethyl-3-methylimidazolium dimethylphosphate] + CO, the surface tension liquid-gas is reported as 44.3 ± 0.6 mN/m. Work on `CCn1cc[n+](C)c1.COP(=O)([O-])OC` [1-ethyl-3-methylimidazolium dimethylphosphate] + O yielded a surface tension liquid-gas of 44.3 ± 0.62 mN/m.

Same assay, conditions: 298.15 K, Ring tensiometer, x2 = 0
With `CCO` [ethanol] + CCCCOP(=O)([O-])OCCCC.CCCCn1cc[n+](C)c1 the surface tension liquid-gas was 21.9 ± 0.3 mN/m. In the case of `CCO` [ethanol] + CCCCn1cc[n+](C)c1.COP(=O)([O-])OC, the surface tension liquid-gas is reported as 21.9 ± 0.3 mN/m. With `CCO` [ethanol] + CCCCn1cc[n+](CC)c1.CCOP(=O)([O-])OCC the surface tension liquid-gas was 21.9 ± 0.3 mN/m. For `CCO` [ethanol] + CCOP(=O)([O-])OCC.CCn1cc[n+](C)c1, the surface tension liquid-gas was 21.9 ± 0.3 mN/m. In the case of `CCO` [ethanol] + CCOP(=O)([O-])OCC.CCn1cc[n+](CC)c1, the surface tension liquid-gas is reported as 21.9 ± 0.3 mN/m. Work on `CCO` [ethanol] + CCn1cc[n+](C)c1.COP(=O)([O-])OC yielded a surface tension liquid-gas of 21.9 ± 0.3 mN/m. Work on `CCO` [ethanol] + COP(=O)([O-])OC.Cn1cc[n+](C)c1 yielded a surface tension liquid-gas of 21.9 ± 0.3 mN/m. Molecule `CO` [methanol] + CCCCOP(=O)([O-])OCCCC.CCCCn1cc[n+](C)c1 has a surface tension liquid-gas of 22.4 ± 0.3 mN/m. In the case of `CO` [methanol] + CCCCn1cc[n+](C)c1.COP(=O)([O-])OC, the surface tension liquid-gas is reported as 22.4 ± 0.3 mN/m. `CO` [methanol] + CCCCn1cc[n+](CC)c1.CCOP(=O)([O-])OCC showed a surface tension liquid-gas of 22.4 ± 0.3 mN/m. `CO` [methanol] + CCOP(=O)([O-])OCC.CCn1cc[n+](C)c1 showed a surface tension liquid-gas of 22.4 ± 0.3 mN/m. `CO` [methanol] + CCOP(=O)([O-])OCC.CCn1cc[n+](CC)c1 showed a surface tension liquid-gas of 22.4 ± 0.3 mN/m. Work on `CO` [methanol] + CCn1cc[n+](C)c1.COP(=O)([O-])OC yielded a surface tension liquid-gas of 22.4 ± 0.3 mN/m. `CO` [methanol] + COP(=O)([O-])OC.Cn1cc[n+](C)c1 showed a surface tension liquid-gas of 22.4 ± 0.3 mN/m. `O` [water] + CCCCOP(=O)([O-])OCCCC.CCCCn1cc[n+](C)c1 showed a surface tension liquid-gas of 71.9 ± 0.9 mN/m. `O` [water] + CCCCn1cc[n+](C)c1.COP(=O)([O-])OC showed a surface tension liquid-gas of 71.9 ± 0.9 mN/m. Work on `O` [water] + CCCCn1cc[n+](CC)c1.CCOP(=O)([O-])OCC yielded a surface tension liquid-gas of 71.9 ± 0.9 mN/m. With `O` [water] + CCOP(=O)([O-])OCC.CCn1cc[n+](C)c1 the surface tension liquid-gas was 71.9 ± 0.9 mN/m. For `O` [water] + CCOP(=O)([O-])OCC.CCn1cc[n+](CC)c1, the surface tension liquid-gas was 71.9 ± 0.9 mN/m. In the case of `O` [water] + CCn1cc[n+](C)c1.COP(=O)([O-])OC, the surface tension liquid-gas is reported as 71.9 ± 0.91 mN/m. For `O` [water] + COP(=O)([O-])OC.Cn1cc[n+](C)c1, the surface tension liquid-gas was 71.9 ± 0.9 mN/m.
